Reference: patent US20240158446A1, “CYCLIC COMPOUND HAVING SELECTIVE INHIBITORY ACTION ON KRAS OVER HRAS AND NRAS” (CHUGAI SEIYAKU KABUSHIKI KAISHA, priority 2021, published 2024)
Where a SMILES comes first, the peptide text is derived from it. Bridges are numbered along the chain shown (N, C = ends). [ ]: non-standard residue; d: D form. The star is where a group is joined. hPhe(3-Cl-4-CF3) = N[C@@H](CCc1ccc(C(F)(F)F)c(Cl)c1)C(=O)O; NPrPhe(4-CF3) = CCCN[C@@H](Cc1ccc(C(F)(F)F)cc1)C(=O)O; Pro(4-spirocPr) = O=C(O)[C@@H]1CC2(CC2)CN1; Morpholine(3S-CO) = O=C(O)[C@@H]1COCCN1; Pip(4,4-F2) = O=C(O)[C@@H]1CC(F)(F)CCN1; NMeGly(cPent) = CN[C@H](C(=O)O)C1CCCC1; Gly(cPent) = N[C@H](C(=O)O)C1CCCC1; Hyp = O=C(O)[C@@H]1C[C@@H](O)CN1; Gly(cBu) = N[C@H](C(=O)O)C1CCC1; NMeD = CN[C@@H](CC(=O)O)C(=O)O; NMeL = CN[C@@H](CC(C)C)C(=O)O; Pip = O=C(O)[C@@H]1CCCCN1; Morpholide = C1CN(*)CCO1; Ac5c = NC1(C(=O)O)CCCC1; Aze = O=C(O)[C@@H]1CCN1; NPrGly = CCCNCC(=O)O; NEtG = CCNCC(=O)O; Sar = CNCC(=O)O

Experiments:
[1] = target: GDP-bound KRAS wild-type protein (Homo sapiens, UniProt P01116); experiment: Binding to KRAS by surface plasmon resonance (SPR), Single Cycle Kinetics; settings: SPR Single Cycle Kinetics, GDP-bound KRAS wild-type protein, 1:1 binding model; read-out: KRAS KD
[2] = target: GDP-bound HRAS wild-type protein (Homo sapiens, UniProt P01112); experiment: Binding to HRAS by surface plasmon resonance (SPR), Single Cycle Kinetics; settings: SPR, GDP-bound HRAS wild-type protein vs GDP-bound KRAS wild-type protein
[3] = target: GDP-bound NRAS wild-type protein (Homo sapiens, UniProt P01111); experiment: Binding to NRAS by surface plasmon resonance (SPR), Single Cycle Kinetics; settings: SPR, GDP-bound NRAS wild-type protein vs GDP-bound KRAS wild-type protein
Chain of GDP-bound NRAS wild-type protein (P01111 whole entry): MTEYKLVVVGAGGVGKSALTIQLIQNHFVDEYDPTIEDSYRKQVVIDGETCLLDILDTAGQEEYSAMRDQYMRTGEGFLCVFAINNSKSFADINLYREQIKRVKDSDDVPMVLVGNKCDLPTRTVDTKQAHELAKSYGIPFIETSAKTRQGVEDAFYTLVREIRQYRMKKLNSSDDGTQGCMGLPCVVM

Chain of GDP-bound HRAS wild-type protein (P01112 whole entry): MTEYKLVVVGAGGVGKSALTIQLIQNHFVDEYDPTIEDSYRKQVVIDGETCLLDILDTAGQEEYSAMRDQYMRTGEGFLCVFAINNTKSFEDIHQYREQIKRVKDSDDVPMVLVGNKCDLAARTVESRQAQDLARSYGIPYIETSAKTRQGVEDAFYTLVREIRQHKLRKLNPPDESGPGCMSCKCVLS
Chain of GDP-bound KRAS wild-type protein (P01116 whole entry): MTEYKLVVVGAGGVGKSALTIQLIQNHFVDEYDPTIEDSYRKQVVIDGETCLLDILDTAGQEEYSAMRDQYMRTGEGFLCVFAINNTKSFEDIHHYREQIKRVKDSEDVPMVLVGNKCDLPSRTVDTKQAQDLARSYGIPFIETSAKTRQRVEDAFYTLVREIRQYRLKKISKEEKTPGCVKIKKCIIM

SMILES	Kd [1]	HRAS/KRAS (ratio of KD value for HRAS to KD value for KRAS) [2]	NRAS/KRAS (ratio of KD value for NRAS to KD value for KRAS) [3]
CCCN1C(=O)CN(C)C(=O)CN(CC)C(=O)[C@H](C2CCC2)NC(=O)[C@H](CC(C)C)N(C)C(=O)C[C@@H](C(=O)N2CCOCC2)N(C)C(=O)[C@H](C2CCCC2)N(C)C(=O)C2(CCCC2)NC(=O)[C@@H]2CCCN2C(=O)[C@H](CCc2ccc(C(F)(F)F)c(Cl)c2)NC(=O)CN(C)C(=O)[C@@H]1Cc1ccc(C(F)(F)F)cc1 [PP0292] ([NMeL][Gly(cBu)][NEtG][Sar][NPrPhe(4-CF3)][Sar][hPhe(3-Cl-4-CF3)]P[Ac5c][NMeGly(cPent)][NMeD]-Morpholide; lactam N-11)	0.54 nM	C (A compound having a KD ratio of 0.1 or more and less than 3 is denoted as C)	B (a compound having 3 or more and less than 10 is denoted as B)
CCCN1C(=O)CN(C)C(=O)CN(CC)C(=O)[C@H](C2CCCC2)NC(=O)[C@H](CC(C)C)N(C)C(=O)C[C@@H](C(=O)N2CCOCC2)N(C)C(=O)[C@H](C2CCCC2)N(C)C(=O)C2(CCCC2)NC(=O)[C@@H]2CCCN2C(=O)[C@H](CCc2ccc(C(F)(F)F)c(Cl)c2)NC(=O)CN(C)C(=O)[C@@H]1Cc1ccc(C(F)(F)F)cc1 [PP0293] ([NMeL][Gly(cPent)][NEtG][Sar][NPrPhe(4-CF3)][Sar][hPhe(3-Cl-4-CF3)]P[Ac5c][NMeGly(cPent)][NMeD]-Morpholide; lactam N-11)	0.84 nM	C (A compound having a KD ratio of 0.1 or more and less than 3 is denoted as C)	B (a compound having 3 or more and less than 10 is denoted as B)
CCCN1C(=O)CN(C)C(=O)CN(CC)C(=O)[C@H]([C@@H](C)CC)NC(=O)[C@H](CC(C)C)N(C)C(=O)C[C@@H](C(=O)N2CCOCC2)N(C)C(=O)[C@H](C2CCCC2)N(C)C(=O)C2(CCCC2)NC(=O)[C@@H]2CCN2C(=O)[C@H](CCc2ccc(C(F)(F)F)c(Cl)c2)NC(=O)CN(C)C(=O)[C@@H]1Cc1ccc(C(F)(F)F)cc1 [PP0294] ([NMeL]I[NEtG][Sar][NPrPhe(4-CF3)][Sar][hPhe(3-Cl-4-CF3)][Aze][Ac5c][NMeGly(cPent)][NMeD]-Morpholide; lactam N-11)	1.7 nM	C (A compound having a KD ratio of 0.1 or more and less than 3 is denoted as C)	B (a compound having 3 or more and less than 10 is denoted as B)
CCCN1C(=O)CN(C)C(=O)CN(CC)C(=O)[C@H]([C@@H](C)CC)NC(=O)[C@H](CC(C)C)N(C)C(=O)C[C@@H](C(=O)N2CCOCC2)N(C)C(=O)[C@H](C2CCCC2)N(C)C(=O)C2(CCCC2)NC(=O)[C@@H]2CC3(CC3)CN2C(=O)[C@H](CCc2ccc(C(F)(F)F)c(Cl)c2)NC(=O)CN(C)C(=O)[C@@H]1Cc1ccc(C(F)(F)F)cc1 [PP0295] ([NMeL]I[NEtG][Sar][NPrPhe(4-CF3)][Sar][hPhe(3-Cl-4-CF3)][Pro(4-spirocPr)][Ac5c][NMeGly(cPent)][NMeD]-Morpholide; lactam N-11)	0.52 nM	C (A compound having a KD ratio of 0.1 or more and less than 3 is denoted as C)	B (a compound having 3 or more and less than 10 is denoted as B)
CCCN1C(=O)CN(C)C(=O)CN(CC)C(=O)[C@H]([C@@H](C)CC)NC(=O)[C@H](CC(C)C)N(C)C(=O)C[C@@H](C(=O)N2CCOCC2)N(C)C(=O)[C@H](C2CCCC2)N(C)C(=O)C2(CCCC2)NC(=O)[C@@H]2C[C@@H](OC)CN2C(=O)[C@H](CCc2ccc(C(F)(F)F)c(Cl)c2)NC(=O)CN(C)C(=O)[C@@H]1Cc1ccc(C(F)(F)F)cc1 [PP0296] ([NMeL]I[NEtG][Sar][NPrPhe(4-CF3)][Sar][hPhe(3-Cl-4-CF3)][Hyp](Me)[Ac5c][NMeGly(cPent)][NMeD]-Morpholide; lactam N-11)	0.15 nM	C (A compound having a KD ratio of 0.1 or more and less than 3 is denoted as C)	B (a compound having 3 or more and less than 10 is denoted as B)
CCCN1C(=O)CN(C)C(=O)CN(CC)C(=O)[C@H]([C@@H](C)CC)NC(=O)[C@H](CC(C)C)N(C)C(=O)C[C@@H](C(=O)N2CCOCC2)N(C)C(=O)[C@H](C2CCCC2)N(C)C(=O)C2(CCCC2)NC(=O)[C@@H]2CC(F)(F)CCN2C(=O)[C@H](CCc2ccc(C(F)(F)F)c(Cl)c2)NC(=O)CN(C)C(=O)[C@@H]1Cc1ccc(C(F)(F)F)cc1 [PP0298] ([NMeL]I[NEtG][Sar][NPrPhe(4-CF3)][Sar][hPhe(3-Cl-4-CF3)][Pip(4,4-F2)][Ac5c][NMeGly(cPent)][NMeD]-Morpholide; lactam N-11)	3 nM	C (A compound having a KD ratio of 0.1 or more and less than 3 is denoted as C)	B (a compound having 3 or more and less than 10 is denoted as B)
CCCN1C(=O)CN(C)C(=O)CN(CC)C(=O)[C@H]([C@@H](C)CC)NC(=O)[C@H](CC(C)C)N(C)C(=O)C[C@@H](C(=O)N2CCOCC2)N(C)C(=O)[C@H](C2CCCC2)N(C)C(=O)C2(CCCC2)NC(=O)[C@@H]2COCCN2C(=O)[C@H](CCc2ccc(C(F)(F)F)c(Cl)c2)NC(=O)CN(C)C(=O)[C@@H]1Cc1ccc(C(F)(F)F)cc1 [PP0299] ([NMeL]I[NEtG][Sar][NPrPhe(4-CF3)][Sar][hPhe(3-Cl-4-CF3)][Morpholine(3S-CO)][Ac5c][NMeGly(cPent)][NMeD]-Morpholide; lactam N-11)	1.4 nM	B (a compound having 3 or more and less than 10 is denoted as B)	B (a compound having 3 or more and less than 10 is denoted as B)
CCCN1C(=O)CN(C)C(=O)CN(CC)C(=O)[C@H]([C@@H](C)CC)NC(=O)[C@H](CC(C)C)N(C)C(=O)C[C@@H](C(=O)N2CCOCC2)N(C)C(=O)[C@H](C2CCCC2)N(C)C(=O)C2(CCCC2)NC(=O)CN(C)C(=O)[C@H](CCc2ccc(C(F)(F)F)c(Cl)c2)NC(=O)CN(C)C(=O)[C@@H]1Cc1ccc(C(F)(F)F)cc1 [PP0300] ([NMeL]I[NEtG][Sar][NPrPhe(4-CF3)][Sar][hPhe(3-Cl-4-CF3)][Sar][Ac5c][NMeGly(cPent)][NMeD]-Morpholide; lactam N-11)	1.4 nM	C (A compound having a KD ratio of 0.1 or more and less than 3 is denoted as C)	B (a compound having 3 or more and less than 10 is denoted as B)
CCCN1CC(=O)NC2(CCCC2)C(=O)N(C)[C@@H](C2CCCC2)C(=O)N(C)[C@H](C(=O)N2CCOCC2)CC(=O)N(C)[C@@H](CC(C)C)C(=O)N[C@@H]([C@@H](C)CC)C(=O)N(CC)CC(=O)N(C)CC(=O)N(CCC)[C@@H](Cc2ccc(C(F)(F)F)cc2)C(=O)N(C)CC(=O)N[C@@H](CCc2ccc(C(F)(F)F)c(Cl)c2)C1=O [PP0301] ([NMeL]I[NEtG][Sar][NPrPhe(4-CF3)][Sar][hPhe(3-Cl-4-CF3)][NPrGly][Ac5c][NMeGly(cPent)][NMeD]-Morpholide; lactam N-11)	4.8 nM	C (A compound having a KD ratio of 0.1 or more and less than 3 is denoted as C)	B (a compound having 3 or more and less than 10 is denoted as B)
CCCN1C(=O)CN(C)C(=O)[C@@H]2CCN2C(=O)[C@H](C2CCC2)NC(=O)[C@H](CC(C)C)N(C)C(=O)C[C@@H](C(=O)N2CCOCC2)N(C)C(=O)[C@H](C2CCCC2)N(C)C(=O)C2(CCCC2)NC(=O)[C@@H]2CCCN2C(=O)[C@H](CCc2ccc(C(F)(F)F)c(Cl)c2)NC(=O)CN(C)C(=O)[C@@H]1Cc1ccc(C(F)(F)F)cc1 [PP0305] ([NMeL][Gly(cBu)][Aze][Sar][NPrPhe(4-CF3)][Sar][hPhe(3-Cl-4-CF3)]P[Ac5c][NMeGly(cPent)][NMeD]-Morpholide; lactam N-11)	0.96 nM	C (A compound having a KD ratio of 0.1 or more and less than 3 is denoted as C)	B (a compound having 3 or more and less than 10 is denoted as B)
CCCN1C(=O)CN(C)C(=O)[C@@H]2CCN2C(=O)[C@H]([C@@H](C)CC)NC(=O)[C@H](CC(C)C)N(C)C(=O)C[C@@H](C(=O)N2CCOCC2)N(C)C(=O)[C@H](C2CCCC2)N(C)C(=O)C2(CCCC2)NC(=O)[C@@H]2C[C@@H](OCC)CN2C(=O)[C@H](CCc2ccc(C(F)(F)F)c(Cl)c2)NC(=O)CN(C)C(=O)[C@@H]1Cc1ccc(C(F)(F)F)cc1 [PP0310] ([NMeL]I[Aze][Sar][NPrPhe(4-CF3)][Sar][hPhe(3-Cl-4-CF3)][Hyp](Et)[Ac5c][NMeGly(cPent)][NMeD]-Morpholide; lactam N-11)	0.45 nM	C (A compound having a KD ratio of 0.1 or more and less than 3 is denoted as C)	B (a compound having 3 or more and less than 10 is denoted as B)
CCCN1C(=O)CN(C)C(=O)[C@@H]2CCN2C(=O)[C@H]([C@@H](C)CC)NC(=O)[C@H](CC(C)C)N(C)C(=O)C[C@@H](C(=O)N2CCOCC2)N(C)C(=O)[C@H](C2CCCC2)N(C)C(=O)C2(CCCC2)NC(=O)[C@@H]2CCCCN2C(=O)[C@H](CCc2ccc(C(F)(F)F)c(Cl)c2)NC(=O)CN(C)C(=O)[C@@H]1Cc1ccc(C(F)(F)F)cc1 [PP0311] ([NMeL]I[Aze][Sar][NPrPhe(4-CF3)][Sar][hPhe(3-Cl-4-CF3)][Pip][Ac5c][NMeGly(cPent)][NMeD]-Morpholide; lactam N-11)	3.3 nM	B (a compound having 3 or more and less than 10 is denoted as B)	B (a compound having 3 or more and less than 10 is denoted as B)
